“Also recorded” adds a separate entry of the source.
Legend:
Assay type in all cases: in vivo, Arabidopsis thaliana
wild-type Arabidopsis [1] = experiment: Seedling survival of wild-type Arabidopsis on medium with 5MT or CdCl2; settings: for seedling survival rate: WT, surviving/seeds; for survival of wild type / non-transformed plants: medium containing 75 μM 5MT or 300 μM CdCl2; for optimum concentration for the selection of putative transformants: wild-type versus transgenic seedlings
Experimental: (§1) Arabidopsis thaliana (L.) Hyen. ecotype Columbia was grown in controlled environment chambers at 24° C., 70% relative humidity, with 24 h photoperiod (about 120 μmol m^−2s^−1). To transform Arabidopsis plants, we used the floral dip method described previously (Clough and Bent, 1998). To transgenic plants constitutively expressing AtTSB1, were selected on MS medium with 20 ppm hygromycin (Murashige and Skoog 1962). The sensitivity of wild type and transgenic T2 homozygous seeds (T3 generation) to different concentrations of 5MT and CdCl2 were assessed on the basis of the germination percentage of seedlings at the end of 2 weeks. After standardizing the optimal selection concentration of 5MT and CdCl2, the floral dip transformation was again performed to evaluate the selection efficiency between TSB1 and conventional hydromycin selection systems.
(§2) Different concentrations of 5MT (0, 25, 50, 75, 100 and 200 μM) and CdCl2 (0, 50, 100, 200, 300, 400 and 500 μM) were evaluated in order to select the transformants constitutively expressing AtTSB1 gene and in these experiments untransformed wild-types used as negative control. Sixty seeds of each wild-type and transgenic seeds were germinated on medium containing various concentrations of 5MT for 2 weeks, and the number of surviving plants recorded (Table 1). Under all the tested conditions, both wild-type and transgenic seeds could germinate almost equally. […] In the meantime, all seedlings on medium containing less than 50 μM 5MT survived selection even after 2 weeks. Thus, 75 μM 5MT is the optimum concentration for the selection of putative transformants.
(§3) A total of one hundred seeds each of wild-type and transgenic plants were germinated on medium containing different concentrations of CdCl2, for 2 weeks, and the survival was recorded (Table 2). The germination rate in wild-type and transgenic seedlings was almost equal on the medium containing CdCl2 concentrations up to 300 μM. […] All the wild-type and transgenic seedlings survived even after 2 weeks on medium containing CdCl2 less than 100 μM. From these observations, we concluded that 300 μM CdCl2 is the optimal concentration needed for selecting putative transformants.

wild-type Arabidopsis [2] = experiment: as above; settings: WT, 1 week, surviving/seeds
[3] = tested on: AtTSB1 transgenic Arabidopsis (TH); experiment: Seedling survival of AtTSB1 transgenic (TH) Arabidopsis on medium with 5MT or CdCl2; settings: for seedling survival rate: TH, 2 weeks, surviving/seeds; for survival / growth of transgenic plants: medium containing 75 μM 5MT or 300 μM CdCl2
Experimental: as §1, §2, §3

[4] = tested on: AtTSB1 transgenic Arabidopsis (TH); experiment: as above; settings: for seedling survival rate: TH, surviving/seeds
[5] = tested on: AtTSB1 transgenic plants (TM1, TM3, TM4); experiment: Free Trp content analysis (GC-MS), TSB transgenic plants; settings: for Endogenous contents of tryptophan: two-week old plants
Experimental: (§4) Two-week old wild-type and transgenic plants were harvested from germination medium with or without 50 μM 5MT. Endogenous free tryptophan analysis was performed described previously (Edlund et al., 1995) with some modification. Cell extracts were prepared from approximately 50 mg dry weight. Frozen tissues were ground with methanol under continuous shaking for 24 h at 4° C. After centrifuged, the supernatant was filtered by 0.22 μm membrane (Millipore Millexg). The filtered solution was reduced to 1 ml in a Speed Vac concentrator. The final solution was extracted by SEP column (Water Oasis HLB6 cc) and use 1 ml methanol to elute the extracts. Each 100 μl sample was methylated with 160 μl pyridine and 40 μl […]-N-trimethylsilyl-trifuoroacetamide at 70° C. for 1 hr. The GC-MS analysis was performed according to conditions described by Edlund et al (Edlund et al., 1995).
(§5) To elucidate the possible relation between the accumulation of free Trp content and resistance to 5MT and CdCl2, free Trp content was measured in AtTSB1 transgenic plants. […] The level in the transgenic plants TM1, TM3 and TM4 was 10- to 15-fold higher (5,900-8,900 pmole/g dry weight) than in wild-type plants (587 pmole/g dry weight). […] A similar trend was observed when TC3, TC4 and TC5 transgenic plants were measured for Trp content, with or without CdCl2.

wild-type plants = experiment: Free Trp content analysis (GC-MS), wild-type plants
Experimental: as §4, §5

With `[Cl][Cd][Cl]` [CdCl2] the seedling survival rate (wild-type Arabidopsis [1]; CdCl2 50 μM, 1 week) was 100/100, the seedling survival rate (wild-type Arabidopsis [1]; CdCl2 50 μM, 2 weeks) was 100/100 and the seedling survival rate (wild-type Arabidopsis [1]; CdCl2 100 μM, 1 week) was 100/100. The seedling survival rate (wild-type Arabidopsis [1]; CdCl2 100 μM, 2 weeks) was 100/100, the seedling survival rate (wild-type Arabidopsis [1]; CdCl2 200 μM, 2 weeks) was 30/100 and the seedling survival rate (wild-type Arabidopsis [1]; CdCl2 300 μM, 2 weeks) was 0/100. For the same molecule, the seedling survival rate (wild-type Arabidopsis [1]; CdCl2 400 μM, 2 weeks) was 0/100, the seedling survival rate (wild-type Arabidopsis [1]; CdCl2 500 μM, 1 week) was 8/100 and the seedling survival rate (wild-type Arabidopsis [1]; CdCl2 500 μM, 2 weeks) was 0/100. The “survival of wild type / non-transformed plants” value (wild-type Arabidopsis [1]) was “did not survive; also recorded: deteriorated”, the “optimum concentration for the selection of putative transformants” value (wild-type Arabidopsis [1]; 2 weeks) was 300 µM and the seedling survival rate (wild-type Arabidopsis [2]; CdCl2 200 μM) was 100/100. For the same molecule, the seedling survival rate (wild-type Arabidopsis [2]; CdCl2 300 μM) was 80/100, the seedling survival rate (wild-type Arabidopsis [2]; CdCl2 400 μM) was 12/100 and the “growth of transgenic plants” value ([3]; 300 μM CdCl2, after 2 weeks) was “slightly inhibited”. For the same molecule, the seedling survival rate ([3]; CdCl2 100 μM) was 100/100, the seedling survival rate ([3]; CdCl2 200 μM) was 95/100 and the seedling survival rate ([3]; CdCl2 300 μM) was 98/100. For the same molecule, the seedling survival rate ([3]; CdCl2 500 μM) was 62/100, the “survival / growth of transgenic plants” value [3] was “grew and survived” and the “transgenic seedlings greener than controls” value ([4]; 300 μM CdCl2, after 2 weeks) was 98%. The seedling survival rate ([4]; CdCl2 50 μM, 1 week) was 100/100, the seedling survival rate ([4]; CdCl2 50 μM, 2 weeks) was 100/100 and the seedling survival rate ([4]; CdCl2 100 μM, 1 week) was 100/100. The seedling survival rate ([4]; CdCl2 200 μM, 1 week) was 100/100, the seedling survival rate ([4]; CdCl2 300 μM, 1 week) was 100/100 and the seedling survival rate ([4]; CdCl2 400 μM, 1 week) was 100/100. The seedling survival rate ([4]; CdCl2 400 μM, 2 weeks) was 80/100 and the seedling survival rate ([4]; CdCl2 500 μM, 1 week) was 100/100.
With `Cc1ccc2[nH]cc(C[C@H](N)C(=O)O)c2c1` [5MT, 5-methyl-tryptophan] the “growth of wild-type plants” value (wild-type Arabidopsis [1]; 75 μM and higher (100 and 200 μM) 5MT, after 2 weeks) was “turned pale green and ceased to grow”, the seedling survival rate (wild-type Arabidopsis [1]; 5MT 25 μM, 1 week) was 60/60 and the seedling survival rate (wild-type Arabidopsis [1]; 5MT 25 μM, 2 weeks) was 24/60. The seedling survival rate (wild-type Arabidopsis [1]; 5MT 50 μM, 1 week) was 60/60, the seedling survival rate (wild-type Arabidopsis [1]; 5MT 50 μM, 2 weeks) was 10/60 and the seedling survival rate (wild-type Arabidopsis [1]; 5MT 75 μM, 2 weeks) was 0/60. For the same molecule, the seedling survival rate (wild-type Arabidopsis [1]; 5MT 100 μM, 2 weeks) was 0/60, the seedling survival rate (wild-type Arabidopsis [1]; 5MT 200 μM, 1 week) was 12/60 and the seedling survival rate (wild-type Arabidopsis [1]; 5MT 200 μM, 2 weeks) was 0/60. For the same molecule, the “survival of wild type / non-transformed plants” value (wild-type Arabidopsis [1]) was “did not survive; also recorded: deteriorated”, the “optimum concentration for the selection of putative transformants” value (wild-type Arabidopsis [1]; 2 weeks) was 75 µM and the seedling survival rate (wild-type Arabidopsis [2]; 5MT 75 μM) was 60/60. The seedling survival rate (wild-type Arabidopsis [2]; 5MT 100 μM) was 25/60, the seedling survival rate ([3]; 5MT 25 μM) was 60/60 and the seedling survival rate ([3]; 5MT 100 μM) was 34/60. For the same molecule, the “survival / growth of transgenic plants” value [3] was “grew and survived”, the survival rate ([3]; transgenic seedlings, 75 μM 5MT) was 100% and the seedling survival rate ([4]; 5MT 50 μM, 1 week) was 40/40. The seedling survival rate ([4]; 5MT 50 μM, 2 weeks) was 60/60, the seedling survival rate ([4]; 5MT 75 μM, 1 week) was 60/60 and the seedling survival rate ([4]; 5MT 75 μM, 2 weeks) was 60/60. For the same molecule, the seedling survival rate ([4]; 5MT 100 μM, 1 week) was 60/60, the seedling survival rate ([4]; 5MT 200 μM, 1 week) was 60/60 and the seedling survival rate ([4]; 5MT 200 μM, 2 weeks) was 18/60. The “resistance of transgenic seedlings” value ([4]; all concentrations of 5MT tested (100 and 200 μM)) was “showed resistance”, the “Endogenous contents of tryptophan” value ([5]; TM1 + 5MT 50 μM) was 5,200 ± 14 pmole/g g · DW and the “Endogenous contents of tryptophan” value ([5]; TM3 + 5MT 50 μM) was 5,100 ± 11 pmole/g g · DW. For the same molecule, the “Endogenous contents of tryptophan” value ([5]; TM4 + 5MT 50 μM) was 7,200 ± 10 pmole/g g · DW, the “level of free Trp” value ([5]; transgenic plants TM1, TM3 and TM4, 5MT in the medium) was 5,100-7,200 pmole/g dry weight and the “Endogenous contents of tryptophan” value (wild-type plants; wild type + 5MT 50 μM, two-week old plants) was 125 ± 6 pmole/g g · DW. For the same molecule, the “level of free Trp” value (wild-type plants; wild-type plants, 5MT in the medium) was 125 pmole/g dry weight and the “reduction of the level of free Trp” value (wild-type plants; wild-type plants, 5MT in the medium versus without) was “fivefold”.

Reference: patent US7629502B2, “Non-antibiotic selection marker genes” (Academia Sinica, priority 2006, dated 2009)
